The test concerns P. methanolica cells (strain CBS6515), UV-mutagenized. The experiment in a line: Nystatin enrichment for auxotrophic mutants, titering for colony forming units. The format is cell-based, Pichia methanolica. The conditions noted are these: 1 mg nystatin added to remainder of 500 ml culture in minimal broth, one additional hour with shaking, nystatin-treated versus control cells. Here is the method:
Large-scale mutagenesis was then carried out using a 2-second UV exposure to provide about 20% killing. Cells were plated at approximately 10^4 cells/plate onto eight YEPD plates that were supplemented with 100 mg/L each of uracil, adenine, and leucine, which were added to supplement the growth of potential auxotrophs having the cognate deficiencies. Following UV exposure the plates were wrapped in foil and incubated overnight at 30° C. The following day the colonies on the plates (~10^5 total) were resuspended in water and washed once with water. An amount of cell suspension sufficient to give an OD600 of 0.1-0.2 was used to inoculate 500 ml of minimal broth made with yeast nitrogen base without amino acids or ammonia, supplemented with 1% glucose and 400 μg/L biotin. The culture was placed in a 2.8 L baffled Bell flask and shaken vigorously overnight at 30° C. The following day the cells had reached an OD600 of ~1.0-2.0. The cells were pelleted and resuspended in 500 ml of minimal broth supplemented with 5 g/L ammonium sulfate. The cell suspension was placed in a 2.8 L baffled Bell flask and shaken vigorously at 30° C. for 6 hours. 50 ml of the culture was set aside in a 250-ml flask as a control, and to the remainder of the culture was added 1 mg nystatin to select for auxotrophic mutants (Snow, Nature 211:206-207, 1966). […]

On to `C[C@@H]1[C@H](O)[C@@H](C)/C=C/C=C/CC/C=C/C=C/C=C/C=C/C(O[C@H]2O[C@H](C)[C@@H](O)[C@H](N)[C@@H]2O)CC2O[C@](O)(CC(O)C(O)CCC(O)CC(O)CC(O)CC(=O)O[C@H]1C)CC(O)C2C(=O)O` (stereo partly shown) [nystatin], for which the “decrease in the number of viable cells (factor)” value was 10^4.

The values above are taken from patent publication US5854039A, “Transformation of pichia methanolica” (ZymoGenetics, Inc., priority 1997, dated 1998).
